Measurements reported in ChEMBL document CHEMBL4483862, “Open-source discovery of chemical leads for next-generation chemoprotective antimalarials” (2018).

Tested on: Plasmodium berghei
Experiment: Luciferase/luciferin-expressing antifolate-resistant parasites were used to infect a culture of HepG2 cells that were pre-incubated with compounds. Infected hepatocytes emit light due to the luciferase reaction. Assay results are presented as the percent inhibition of light emission compared to control. […]
Format: functional
Conditions: sporozoite; for IC90: read-out: LUCIFERASE INFECTION ASSAY - IC90
[1] = read-out: LUCIFERASE INFECTION ASSAY - IC50

| SMILES | IC90 [µM] | further results |
| --- | --- | --- |
| O=[N+]([O-])c1cc(C(F)(F)F)ccc1Sc1nnc(-c2cc(Cl)cc(Cl)c2)[nH]1 | 7.2 | IC50 (HEPG2TOX_HILL_SLOPE 11.8, HEPG2TOX_R_SQUARED 0.697, PBLUC_HILL_SLOPE 13.2, PBLUC_R_SQUARED 0.063, read-out: LUCIFERASE INFECTION ASSAY - IC50): 6.09 µM |
| Cc1oc2cc(OC(C)C(=O)Nc3cccc([N+](=O)[O-])c3)ccc2c(=O)c1-c1ccccc1 (stereo not given) | > 10 | IC50 [1]: 8.01 µM |
| O=C(Nc1nc(C23CC4CC(CC(C4)C2)C3)cs1)C1=COCCO1 | > 10 | IC50 (PBLUC_HILL_SLOPE 3.95, PBLUC_R_SQUARED 0.0619, read-out: LUCIFERASE INFECTION ASSAY - IC50): 7.07 µM |
| CN(C)CCNc1nc2sc3c(c2c(=O)n1-c1ccccc1)CCCCC3 | > 8.63 | IC50 (PBLUC_HILL_SLOPE 1.45, PBLUC_R_SQUARED 0.611, read-out: LUCIFERASE INFECTION ASSAY - IC50): 8.23 µM |
| CCCCNC(=O)c1c(NC(=O)c2cccc(F)c2)nc2ccc(C)cn12 | 2.84 | IC50 [1]: 1.29 µM |
| OC1CCC(Nc2ccc3ncc(Br)n3n2)CC1 (stereo not given) | > 10.6 | IC50 (HEPG2TOX_HILL_SLOPE 1.63, HEPG2TOX_R_SQUARED 0.931, read-out: LUCIFERASE INFECTION ASSAY - IC50): > 10.6 µM |
| N=C1C(c2nc(-c3ccccc3)cs2)C(=O)CN1c1ccc2c(c1)OCCO2 (stereo not given) | > 8.43 | IC50 (HEPG2TOX_HILL_SLOPE 0.297, HEPG2TOX_R_SQUARED 0.47, PBLUC_HILL_SLOPE 1.65, PBLUC_R_SQUARED 0.172, read-out: LUCIFERASE INFECTION ASSAY - IC50): > 8.43 µM |
| Cn1cccc1C(=O)NC(=O)COC(=O)CCNC(=O)c1ccc([N+](=O)[O-])cc1 | > 10 | IC50 [1]: > 10 µM |
| CCn1c(SCc2nc3ccccc3c(=O)n2CC(N)=O)nnc1C1CC1 | > 10 | IC50 [1]: > 10 µM |
| CCCN(CCC)Cc1c(O)ccc2c1O/C(=C\c1ccc(OCC)cc1)C2=O | > 8.34 | IC50 (HEPG2TOX_HILL_SLOPE 7.71, HEPG2TOX_R_SQUARED 0.351, PBLUC_HILL_SLOPE 26.6, PBLUC_R_SQUARED 0.241, read-out: LUCIFERASE INFECTION ASSAY - IC50): 7.9 µM |
| COC(=O)c1ccc(NC(=O)c2ccc(-c3cccc(Br)c3)nc2C)s1 | > 10 | IC50 (PBLUC_HILL_SLOPE 7.52, PBLUC_R_SQUARED 0.673, read-out: LUCIFERASE INFECTION ASSAY - IC50): 9.09 µM |
| Cc1ccc(S(=O)(=O)CCN2CCC(C#N)CC2)cc1 | > 11.3 | IC50 [1]: > 11.3 µM |
| O=C(CSc1nnc(-c2ccco2)o1)OCc1cc(F)cc2c1OC(c1ccccc1)OC2 (stereo not given) | 4.11 | IC50 (HEPG2TOX_HILL_SLOPE 2.76, 2.27, HEPG2TOX_R_SQUARED 0.916, 0.957, PBLUC_HILL_SLOPE 6.02, 15.8, PBLUC_R_SQUARED 0.479, 0.425, read-out: LUCIFERASE INFECTION ASSAY - IC50): 3.17 µM |
| Cc1ccc(CSc2nc3c(c(-c4cccs4)c2C#N)CCCC3)cc1 | > 8.76 | IC50 (FFLUC_HILL_SLOPE 8.93, FFLUC_R_SQUARED 0.64, PBLUC_HILL_SLOPE 2.69, PBLUC_R_SQUARED 0.339, read-out: LUCIFERASE INFECTION ASSAY - IC50): 6.13 µM |
| CN(CC(=O)Nc1nc(C23CC4CC(CC(C4)C2)C3)cs1)S(=O)(=O)c1cccs1 | 3.45 | IC50 (FFLUC_HILL_SLOPE 3.68, FFLUC_R_SQUARED 0.43, PBLUC_HILL_SLOPE 112, PBLUC_R_SQUARED 0.327, read-out: LUCIFERASE INFECTION ASSAY - IC50): 3.38 µM |
| O=C(/C=C/c1ccc(Cl)c(Cl)c1)NNC(=O)C1COc2ccccc2O1 (stereo not given) | 9.08 | IC50 (PBLUC_HILL_SLOPE 3.24, PBLUC_R_SQUARED 0.588, read-out: LUCIFERASE INFECTION ASSAY - IC50): 4.61 µM |
| COc1ccc(S(=O)(=O)N2CCN(C(=O)c3sc4nc5n(c(=O)c4c3C)CCCCC5)CC2)cc1 | > 10 | IC50 [1]: > 10 µM |
| COc1ccccc1N(Cc1ccccc1)S(=O)(=O)c1cccc(C(=O)NC2CC(C)(C)NC(C)(C)C2)c1 | 9.9 | IC50 (PBLUC_HILL_SLOPE 145, PBLUC_R_SQUARED 0.235, read-out: LUCIFERASE INFECTION ASSAY - IC50): 9.75 µM |
| NC(=O)c1ccc(-c2cc(-c3ccccc3Oc3ccccc3)cnc2N)cc1 | 2.98 | IC50 (PBLUC_HILL_SLOPE 21, PBLUC_R_SQUARED 0.292, read-out: LUCIFERASE INFECTION ASSAY - IC50): 2.68 µM |
| CN1CCN(c2ccc(-c3cn4c(-c5ccc6ncccc6c5)cnc4cn3)cc2)CC1 | 7.74 | IC50 (HEPG2TOX_HILL_SLOPE 17, HEPG2TOX_R_SQUARED 0.823, PBLUC_HILL_SLOPE 14.3, PBLUC_R_SQUARED 0.731, read-out: LUCIFERASE INFECTION ASSAY - IC50): 6.63 µM |

| SMILES | IC90 [µM] | further results |
| --- | --- | --- |
| Cc1cnc(C(=O)Nc2cc(C(F)(F)F)ccc2N2CCN(C)CC2)cn1 | > 10 | IC50 (PBLUC_HILL_SLOPE 0.31, PBLUC_R_SQUARED 0.853, read-out: LUCIFERASE INFECTION ASSAY - IC50): > 10 µM |
| CCCn1c(NC(=O)Cc2csc(NC(=O)c3ccco3)n2)nc2ccccc21 | > 10 | IC50 (PBLUC_HILL_SLOPE 1.19, PBLUC_R_SQUARED 0.0275, read-out: LUCIFERASE INFECTION ASSAY - IC50): > 10 µM |
| O=c1c2c(-c3ccccc3)csc2nc2c3ccccc3c(NCCO)nn12 | > 10 | IC50 [1]: > 10 µM |
| N#Cc1nc(-c2ccccc2)nc2[nH]c(-c3ccccc3)c(C#N)c12 | 9.81 | IC50 (FFLUC_HILL_SLOPE 4.02, FFLUC_R_SQUARED 0.58, HEPG2TOX_HILL_SLOPE 1.18, HEPG2TOX_R_SQUARED 0.976, PBLUC_HILL_SLOPE 16.6, PBLUC_R_SQUARED 0.228, read-out: LUCIFERASE INFECTION ASSAY - IC50): 8.59 µM |
| O=C(NC1CCCCC1)c1ccccc1-n1ncc(Cl)c(Cl)c1=O | 3.79 | IC50 (FFLUC_HILL_SLOPE 2.05, FFLUC_R_SQUARED 0.721, HEPG2TOX_HILL_SLOPE 15.4, HEPG2TOX_R_SQUARED 0.582, PBLUC_HILL_SLOPE 17.3, PBLUC_R_SQUARED 0.758, read-out: LUCIFERASE INFECTION ASSAY - IC50): 3.34 µM |
| Oc1ccc(-c2cnc3cnc(-c4ccc(Cl)cc4Cl)cn23)cc1 | 3.44 | IC50 (HEPG2TOX_HILL_SLOPE 1.37, HEPG2TOX_R_SQUARED 0.776, PBLUC_HILL_SLOPE 1.58, PBLUC_R_SQUARED 0.733, read-out: LUCIFERASE INFECTION ASSAY - IC50): 0.858 µM |
| O=C(Nc1nc(-c2ccccn2)cs1)c1ccc(-n2cncn2)cc1 | 1.2 | IC50 (HEPG2TOX_HILL_SLOPE 1.34, HEPG2TOX_R_SQUARED 0.829, PBLUC_HILL_SLOPE 31.3, PBLUC_R_SQUARED 0.545, read-out: LUCIFERASE INFECTION ASSAY - IC50): 1.12 µM |
| C/C=C/c1ccc(OCC(O)Cn2c(=O)c(-c3ccccc3)[n+]([O-])c3ccccc32)c(OC)c1 (stereo not given) | 9.19 | IC50 [1]: 1.21 µM |
| Cc1ccc(C)n1-c1nc2ccc(C(=O)NCC(O)c3ccccc3)cc2s1 (stereo not given) | 4.67 | IC50 (HEPG2TOX_HILL_SLOPE 1.7, HEPG2TOX_R_SQUARED 0.986, PBLUC_HILL_SLOPE 2.65, PBLUC_R_SQUARED 0.703, read-out: LUCIFERASE INFECTION ASSAY - IC50): 2.04 µM |
| CC(C)CC(N)c1csc(NC(=O)Nc2ccc(OC(F)(F)F)cc2)n1 (stereo not given) | 5.1 | IC50 (PBLUC_HILL_SLOPE 53.9, PBLUC_R_SQUARED 0.0664, read-out: LUCIFERASE INFECTION ASSAY - IC50): 4.89 µM |
| O=C(Nc1cccc(C(F)(F)F)c1)c1cc(Cl)c(=O)n(Cc2cccc(C(F)(F)F)c2)c1 | > 6.95 | IC50 (HEPG2TOX_HILL_SLOPE 12.5, HEPG2TOX_R_SQUARED 0.604, PBLUC_HILL_SLOPE 13, PBLUC_R_SQUARED 0.312, read-out: LUCIFERASE INFECTION ASSAY - IC50): 6.47 µM |
| CNc1nc2cnc(Nc3cccc(F)c3)cc2n1-c1cccc(C(F)(F)F)c1 | > 10 | IC50 (FFLUC_HILL_SLOPE 8.44, FFLUC_R_SQUARED 0.0352, read-out: LUCIFERASE INFECTION ASSAY - IC50): > 10 µM |
| NNc1nc(C(F)(F)F)nc2c1cnn2Cc1ccccc1 | > 10 | IC50 (FFLUC_HILL_SLOPE 3.09, FFLUC_R_SQUARED 0.0505, read-out: LUCIFERASE INFECTION ASSAY - IC50): > 10 µM |
| COc1ccc(-c2nonc2NC(=O)c2sc3cc(C)ccc3c2Cl)cc1 | 6.5 | IC50 (HEPG2TOX_HILL_SLOPE 8.9, HEPG2TOX_R_SQUARED 0.644, PBLUC_HILL_SLOPE 6.34, PBLUC_R_SQUARED 0.0844, read-out: LUCIFERASE INFECTION ASSAY - IC50): 4.6 µM |
| CC1(C)CC(=O)c2c(SCCOC(=O)Nc3ccccc3)sc(C#N)c2C1 | > 8.24 | IC50 [1]: > 8.24 µM |
| CCN1C(=O)N(CCN(C)C)C(=O)C12CCN(Cc1ccc3c(c1)c1ccccc1n3CC)CC2 | 6.84 | IC50 (PBLUC_HILL_SLOPE 12.4, PBLUC_R_SQUARED 0.445, read-out: LUCIFERASE INFECTION ASSAY - IC50): 5.73 µM |
| CC(C)(C)c1ccc(NC(=O)CSc2ccc(S(=O)(=O)N3CCN(Cc4ccccc4)CC3)cn2)cc1 | 9.27 | IC50 [1]: 4.44 µM |
| CC(=O)c1sc(SCCS(=O)(=O)c2ccccc2)c2c1CC(C)(C)CC2=O | > 7.81 | IC50 [1]: > 7.81 µM |
| CN1CCN(c2ccc(NC(=O)c3csc4c3CCCC4)cc2)CC1 | 4.98 | IC50 (PBLUC_HILL_SLOPE 0.882, PBLUC_R_SQUARED 0.629, read-out: LUCIFERASE INFECTION ASSAY - IC50): 0.413 µM |
| O=C(O)C1C2C=CC(O2)C1C(=O)Nc1ccc(OC(F)(F)F)cc1 (stereo not given) | > 9.61 | IC50 (PBLUC_HILL_SLOPE 1.22, PBLUC_R_SQUARED 0.106, read-out: LUCIFERASE INFECTION ASSAY - IC50): > 9.61 µM |
